Earlier results in patent publication US20090291122A1, “Wound Care Treatment Product” (SANO MEDICAL bvba, priority 2006, published 2009).

Tested on: E-coli

SMILES: O=[O+][O-] [Ozone]
- speed of killing E-coli relative to chlorine: 3125 times faster than chlorine
